Reference: ChEMBL document CHEMBL4411307, “N,N'-diaryl-bishydrazones in a biphenyl platform: Broad spectrum antifungal agents” (Eur J Med Chem, 2019)
Converted amounts (≈) assume the structure as drawn. The source made the active and inactive calls. The rule behind the calls is not given here.

Assays:
[1] = system: Listeria monocytogenes; assay: Antibacterial activity against Listeria monocytogenes; format: functional, organism-based
[2] = system: Staphylococcus aureus; assay: Antibacterial activity against methicillin-resistant Staphylococcus aureus; format: functional, organism-based
[3] = system: Enterococcus; assay: Antibacterial activity against vancomycin-resistant Enterococcus; format: functional, organism-based
[4] = system: Candida albicans; assay: Antifungal activity against fluconazole/ITC-resistant Candida albicans ATCC 10231 measured after 48 hrs by CLSI M27-A3 protocol based method; format: functional; details: ATCC 10231, 48 h
[5] = system: Candida albicans; assay: Antifungal activity against fluconazole/ITC-resistant Candida albicans ATCC 64124 measured after 48 hrs by CLSI M27-A3 protocol based method; format: functional; details: ATCC 64124, 48 h
[6] = system: Candida albicans; assay: Antifungal activity against fluconazole/ITC-susceptible Candida albicans ATCC MYA-2876 measured after 48 hrs by CLSI M27-A3 protocol based method; format: functional; details: ATCC MYA-2876, 48 h
[7] = system: Candida albicans; assay: Antifungal activity against fluconazole/ITC-resistant Candida albicans ATCC 90819 measured after 48 hrs by CLSI M27-A3 protocol based method; format: functional; details: ATCC 90819, 48 h
[8] = system: Candida albicans; assay: Antifungal activity against fluconazole/ITC-resistant Candida albicans ATCC MYA-1237 measured after 48 hrs by CLSI M27-A3 protocol based method; format: functional; details: ATCC MYA-1237, 48 h
[9] = system: Pichia kudriavzevii; assay: Antifungal activity against Candida krusei ATCC 6258 measured after 48 hrs by CLSI M27-A3 protocol based method; format: functional; details: ATCC 6258, 48 h
[10] = system: Candida parapsilosis; assay: Antifungal activity against Candida parapsilosis ATCC 22019 measured after 48 hrs by CLSI M27-A3 protocol based method; format: functional; details: Lodderomyces parapsilosis, ATCC 22019, 48 h
[11] = system: Aspergillus flavus; assay: Antifungal activity against Aspergillus flavus ATCC MYA-3631 measured after 48 hrs by CLSI M38-A2 protocol based method; format: functional; details: ATCC MYA-3631, 48 h
[12] = system: Aspergillus nidulans; assay: Antifungal activity against Aspergillus nidulans ATCC 38163 measured after 48 hrs by CLSI M38-A2 protocol based method; format: functional; details: ATCC 38163, 48 h
[13] = system: Aspergillus terreus; assay: Antifungal activity against Aspergillus terreus ATCC MYA-3633 measured after 48 hrs by CLSI M38-A2 protocol based method; format: functional; details: ATCC MYA-3633, 48 h
[14] = system: A549; assay: Cytotoxicity against human A549 cells after 24 hrs by resazurin based assay; format: cell-based; details: a549, 24 h
[15] = system: BEAS-2B; assay: Cytotoxicity against human BEAS2B cells after 24 hrs by resazurin based assay; format: cell-based
[16] = Selectivity index, ratio of CC50 for human A549 cells to MIC for fluconazole/ITC-resistant Candida albicans ATCC 10231; format: toxicity; details: read-out: Selectivity Index
[17] = Selectivity index, ratio of CC50 for human A549 cells to MIC for fluconazole/ITC-resistant Candida albicans ATCC 64124; format: toxicity; details: read-out: Selectivity Index
[18] = Selectivity index, ratio of CC50 for human A549 cells to MIC for fluconazole/ITC-susceptible Candida albicans ATCC MYA-2876; format: toxicity; details: read-out: Selectivity Index
[19] = Selectivity index, ratio of CC50 for human A549 cells to MIC for fluconazole/ITC-resistant Candida albicans ATCC 90819; format: toxicity; details: read-out: Selectivity Index
[20] = Selectivity index, ratio of CC50 for human A549 cells to MIC for fluconazole/ITC-susceptible Candida albicans ATCC MYA-2310; format: toxicity; details: read-out: Selectivity Index
[21] = Selectivity index, ratio of CC50 for human A549 cells to MIC for fluconazole/ITC-resistant Candida albicans ATCC MYA-1237; format: toxicity; details: read-out: Selectivity Index
[22] = Selectivity index, ratio of CC50 for human A549 cells to MIC for fluconazole/ITC-resistant Candida albicans ATCC MYA-1003; format: toxicity; details: read-out: Selectivity Index
[23] = Selectivity index, ratio of CC50 for human A549 cells to MIC for Candida glabrata ATCC 2001; format: toxicity; details: read-out: Selectivity Index
[24] = Selectivity index, ratio of CC50 for human A549 cells to MIC for Candida krusei ATCC 6258; format: toxicity; details: read-out: Selectivity Index
[25] = Selectivity index, ratio of CC50 for human A549 cells to MIC for Candida parapsilosis ATCC 22019; format: toxicity; details: read-out: Selectivity Index
[26] = Selectivity index, ratio of CC50 for human A549 cells to MIC for Aspergillus flavus ATCC MYA-3631; format: toxicity; details: read-out: Selectivity Index
[27] = Selectivity index, ratio of CC50 for human A549 cells to MIC for Aspergillus nidulans ATCC 38163; format: toxicity; details: read-out: Selectivity Index
[28] = Selectivity index, ratio of CC50 for human A549 cells to MIC for Aspergillus terreus ATCC MYA-3633; format: toxicity; details: read-out: Selectivity Index
[29] = Hemolytic activity in mouse RBC at […] after 1 hr relative to control; format: ADME, cell-based, Erythrocyte; details: red blood cells (erythrocytes), read-out: Activity; also: tested at 0.48 µg/mL
[30] = Hemolytic activity in mouse RBC at […] ug/ml after 1 hr relative to control; format: ADME, cell-based, Erythrocyte; details: red blood cells (erythrocytes), read-out: Activity
[31] = Hemolytic activity in mouse RBC at 1.95 ug/ml after 1 hr relative to control; format: ADME, cell-based, Erythrocyte; details: red blood cells (erythrocytes), read-out: Activity
[32] = Hemolytic activity in mouse RBC at 3.9 ug/ml after 1 hr relative to control; format: ADME, cell-based, Erythrocyte; details: red blood cells (erythrocytes), read-out: Activity
[33] = Hemolytic activity in mouse RBC at 7.8 ug/ml after 1 hr relative to control; format: ADME, cell-based, Erythrocyte; details: red blood cells (erythrocytes), read-out: Activity
[34] = Hemolytic activity in mouse RBC at 31.3 ug/ml after 1 hr relative to control; format: ADME, cell-based, Erythrocyte; details: red blood cells (erythrocytes), read-out: Activity
[35] = Hemolytic activity in mouse RBC at 62.5 ug/ml after 1 hr relative to control; format: ADME, cell-based, Erythrocyte; details: red blood cells (erythrocytes), read-out: Activity
[36] = Selectivity index, ratio of compound concentration showing <20 to <30% hemolysis in mouse RBC to MIC for fluconazole/ITC-resistant Candida albicans ATCC 10231; format: toxicity; details: red blood cells (erythrocytes), read-out: Selectivity Index
[37] = Selectivity index, ratio of compound concentration showing <20 to <30% hemolysis in mouse RBC to MIC for fluconazole/ITC-resistant Candida albicans ATCC 64124; format: toxicity; details: red blood cells (erythrocytes), read-out: Selectivity Index
[38] = Selectivity index, ratio of compound concentration showing <20 to <30% hemolysis in mouse RBC to MIC for fluconazole/ITC-susceptible Candida albicans ATCC MYA-2876; format: toxicity; details: red blood cells (erythrocytes), read-out: Selectivity Index
[39] = Selectivity index, ratio of compound concentration showing <20 to <30% hemolysis in mouse RBC to MIC for fluconazole/ITC-resistant Candida albicans ATCC 90819; format: toxicity; details: red blood cells (erythrocytes), read-out: Selectivity Index
[40] = Selectivity index, ratio of compound concentration showing <20 to <30% hemolysis in mouse RBC to MIC for fluconazole/ITC-susceptible Candida albicans ATCC MYA-2310; format: toxicity; details: mouse red blood cells (RBC), read-out: Selectivity Index
[41] = Selectivity index, ratio of compound concentration showing <20 to <30% hemolysis in mouse RBC to MIC for fluconazole/ITC-resistant Candida albicans ATCC MYA-1237; format: toxicity; details: mouse red blood cells (RBC), read-out: Selectivity Index
[42] = Selectivity index, ratio of compound concentration showing <20 to <30% hemolysis in mouse RBC to MIC for fluconazole/ITC-resistant Candida albicans ATCC MYA-1003; format: toxicity; details: mouse red blood cells (RBC), read-out: Selectivity Index
[43] = Selectivity index, ratio of compound concentration showing <20 to <30% hemolysis in mouse RBC to MIC for Candida glabrata ATCC 2001; format: toxicity; details: mouse red blood cells (RBC), read-out: Selectivity Index
[44] = Selectivity index, ratio of compound concentration showing <20 to <30% hemolysis in mouse RBC to MIC for Candida krusei ATCC 6258; format: toxicity; details: mouse red blood cells (RBC), read-out: Selectivity Index
[45] = Selectivity index, ratio of compound concentration showing <20 to <30% hemolysis in mouse RBC to MIC for Candida parapsilosis ATCC 22019; format: toxicity; details: mouse red blood cells (RBC), read-out: Selectivity Index
[46] = Selectivity index, ratio of compound concentration showing <20 to <30% hemolysis in mouse RBC to MIC for Aspergillus flavus ATCC MYA-3631; format: toxicity; details: mouse red blood cells (RBC), read-out: Selectivity Index
[47] = Selectivity index, ratio of compound concentration showing <20 to <30% hemolysis in mouse RBC to MIC for Aspergillus nidulans ATCC 38163; format: toxicity; details: mouse red blood cells (RBC), read-out: Selectivity Index
[48] = Selectivity index, ratio of compound concentration showing <20 to <30% hemolysis in mouse RBC to MIC for Aspergillus terreus ATCC MYA-3633; format: toxicity; details: mouse red blood cells (RBC), read-out: Selectivity Index
[49] = molecular target: Voltage-gated inwardly rectifying potassium channel KCNH2 (Homo sapiens, UniProt Q12809); assay: Inhibition of [3H]-dofetilide binding to human ERG expressed in HEK293 cell membranes measured after 1 hr by liquid scintillation counting method
Chain of Voltage-gated inwardly rectifying potassium channel KCNH2 (Q12809 whole entry): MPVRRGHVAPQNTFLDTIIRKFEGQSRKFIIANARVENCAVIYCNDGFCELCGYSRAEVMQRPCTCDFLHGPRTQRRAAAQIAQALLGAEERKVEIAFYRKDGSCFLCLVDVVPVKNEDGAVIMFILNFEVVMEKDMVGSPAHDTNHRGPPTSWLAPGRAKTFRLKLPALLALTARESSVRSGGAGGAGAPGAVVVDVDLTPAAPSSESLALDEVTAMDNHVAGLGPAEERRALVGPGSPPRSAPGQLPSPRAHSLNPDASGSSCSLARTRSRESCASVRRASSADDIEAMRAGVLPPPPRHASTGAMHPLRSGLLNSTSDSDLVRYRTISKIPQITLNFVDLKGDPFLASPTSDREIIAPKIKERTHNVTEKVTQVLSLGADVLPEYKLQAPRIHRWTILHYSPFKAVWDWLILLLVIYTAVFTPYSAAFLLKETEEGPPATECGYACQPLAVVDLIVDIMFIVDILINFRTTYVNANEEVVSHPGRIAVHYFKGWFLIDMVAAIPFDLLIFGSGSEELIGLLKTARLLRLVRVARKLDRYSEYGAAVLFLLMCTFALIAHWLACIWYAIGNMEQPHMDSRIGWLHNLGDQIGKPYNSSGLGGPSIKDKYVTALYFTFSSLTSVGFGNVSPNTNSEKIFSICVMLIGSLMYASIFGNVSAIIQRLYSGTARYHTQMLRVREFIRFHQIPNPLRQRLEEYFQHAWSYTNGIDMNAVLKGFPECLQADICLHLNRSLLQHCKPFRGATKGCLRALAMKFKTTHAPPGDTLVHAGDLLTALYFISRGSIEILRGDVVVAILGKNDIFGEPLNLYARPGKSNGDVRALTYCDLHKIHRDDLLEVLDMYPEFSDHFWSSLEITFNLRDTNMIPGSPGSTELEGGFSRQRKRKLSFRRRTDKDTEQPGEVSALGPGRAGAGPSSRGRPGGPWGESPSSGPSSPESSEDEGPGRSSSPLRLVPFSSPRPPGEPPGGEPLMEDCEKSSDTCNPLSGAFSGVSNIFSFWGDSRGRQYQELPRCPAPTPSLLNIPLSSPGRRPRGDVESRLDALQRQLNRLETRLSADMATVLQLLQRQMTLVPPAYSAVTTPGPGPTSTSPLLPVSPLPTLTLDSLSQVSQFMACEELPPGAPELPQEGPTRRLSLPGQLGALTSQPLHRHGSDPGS

## COc1ccc(N/N=C/c2ccc(-c3cccc(/C=N/Nc4ccc(OC)cc4)c3)cc2)cc1
[1]
  Activity: inactive
[2]
  Activity: inactive
[3]
  Activity: inactive
[4]
  MIC: 1.95 µg/mL (≈ 4.33 µM)
[5]
  MIC: 15.6 µg/mL (≈ 34.6 µM)
[6]
  MIC: 3.9 µg/mL (≈ 8.66 µM)
[7]
  MIC: 3.9 µg/mL (≈ 8.66 µM)
[8]
  MIC: 3.9 µg/mL (≈ 8.66 µM)
[9]
  MIC: 3.9 µg/mL (≈ 8.66 µM)
[10]
  MIC: > 31.3 µg/mL
[11]
  MIC: > 31.3 µg/mL
[12]
  MIC: 31.3 µg/mL (≈ 69.5 µM)
[13]
  MIC: > 31.3 µg/mL
[14]
  CC50: 18.2 µg/mL (≈ 40.4 µM)
[15]
  CC50: 14.1 µg/mL (≈ 31.3 µM)
[16]
  selectivity ratio: 9.3
[17]
  selectivity ratio: 1.2
[18]
  selectivity ratio: 4.7
[19]
  selectivity ratio: 4.7
[20]
  selectivity ratio: 2.3
[21]
  selectivity ratio: 4.7
[22]
  selectivity ratio: 2.3
[23]
  selectivity ratio: 2.3
[24]
  selectivity ratio: 4.7
[25]
  selectivity ratio: 0.6
[26]
  selectivity ratio: 0.6
[27]
  selectivity ratio: 0.6
[28]
  selectivity ratio: 0.6
[29]
  hemolysis at 1 h, […]: 0%
[30]; at 15.6 µg/mL
  hemolysis at 1 h, 15.6 ug/ml: 7.8%
[30]
  hemolysis at 1 h, 0.975 ug/ml: 2.6%
[31]
  hemolysis at 1 h, 1.95 ug/ml: 4.5%
[32]
  hemolysis at 1 h, 3.9 ug/ml: 3%
[33]
  hemolysis at 1 h, 7.8 ug/ml: 2.6%
[34]
  hemolysis at 1 h, 31.3 ug/ml: 9.6%
[35]
  hemolysis at 1 h, 62.5 ug/ml: 18.8%
[36]
  selectivity ratio: 1 to 32
[37]
  selectivity ratio: 1 to 32
[38]
  selectivity ratio: 1 to 32
[39]
  selectivity ratio: 1 to 32
[40]
  selectivity ratio: 1 to 32
[41]
  selectivity ratio: 1 to 32
[42]
  selectivity ratio: 1 to 32
[43]
  selectivity ratio: 1 to 32
[44]
  selectivity ratio: 1 to 32
[45]
  selectivity ratio: 1 to 32
[46]
  selectivity ratio: 1 to 32
[47]
  selectivity ratio: 1 to 32
[48]
  selectivity ratio: 1 to 32
[49]
  IC50: > 30 µM
